Patent publication US20220242870A1, “HETEROCYCLE-FUSED PYRIMIDINE DERIVATIVE AND USE THEREOF” (VORONOI Inc., priority 2019, published 2022)

Assays:
[1] = target: T1, CDK6 cyclin D1 (Homo sapiens, UniProt Q00534); assay: CDK6 enzyme inhibitory ability (Reaction Biology); assay type: biochemical; conditions: measured in Reaction Biology (USA)
T1 construct: purchased Reaction Biology (USA), contract assay
Procedure: (§1) In order to evaluate the CDK4 and CDK6 enzyme inhibitory activities of the example compounds according to the present invention, IC5O (nM) was measured for the CDK4 cyclin D1 and CDK6 cyclin D1 enzymes in Reaction Biology (USA), and the results were shown in Table 3 below.

[2] = target: T2, human GST-HPK1 (1-346) (Homo sapiens, UniProt Q92918); assay: HPK1 enzyme inhibitory ability (ADP-Glo kinase assay); assay type: biochemical; conditions: human GST-HPK1 3 ng, ATP 3 uM, 25° C. 2 hours
T2 construct: purified human GST-HPK1 (1-346, Signalchem) enzyme; purchased Signalchem
T2 sequence (Q92918 1-346): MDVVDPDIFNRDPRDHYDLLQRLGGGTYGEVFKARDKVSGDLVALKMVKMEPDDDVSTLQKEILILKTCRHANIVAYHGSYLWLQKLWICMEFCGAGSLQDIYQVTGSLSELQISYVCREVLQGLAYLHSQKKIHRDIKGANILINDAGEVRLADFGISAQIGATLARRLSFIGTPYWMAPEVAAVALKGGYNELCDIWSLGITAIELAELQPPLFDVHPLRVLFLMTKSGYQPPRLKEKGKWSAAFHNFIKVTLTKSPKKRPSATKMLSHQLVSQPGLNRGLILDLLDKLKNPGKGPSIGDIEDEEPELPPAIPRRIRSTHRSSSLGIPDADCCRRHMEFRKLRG
In short: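 Human GST-HPK1(1-346), 3 ng, reacted with 3 uM ATP and specific substrate in 40 mM Tris-HCl pH 7.4, 20 mM MgCl2, 0.5 mg/mL BSA, 50 uM DTT for 2 h at 25° C. ADP-Glo luminescence read; IC50 (nM) relative to untreated solvent control.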

[3] = test system: MV4-11 cells; assay: AML cell proliferation inhibitory activity (CellTiter-Glo); assay type: cell-based; conditions: Homo sapiens, 72 hours
In short: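 RS4;11 and MV4-11 cells in RPMI-1640 with 10% FBS, seeded 24 h before treatment, then exposed 72 h to 12 three-fold dilutions (0.3 nM–50 μM final). Viability by CellTiter-Glo luminescence relative to solvent control; GI50 from triplicate experiments.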

[4] = target: T3, CDK7 (Homo sapiens, UniProt P50613); assay: scanMAX kinase assay panel; assay type: binding; conditions: read-out: control percentage (% control)
T3 construct: purchased DiscoverX (scanMAX panel, contract assay)
Procedure: (§2) The activities of the compounds according to the present invention to more diverse enzymes were evaluated. Specifically, it was decided that the enzyme selectivity of Example 74 selected from the compounds of Examples 1 to 129 was measured at the request of DiscoverX, and the experiment was conducted using a scanMAX™ kinase assay panel. At this time, as a drug to treat the enzyme, a solution prepared by dissolving in DMSO at a concentration of 1 μM was used, and the control percentage (% control) was determined by the method of Equation 1 below, and the results were shown in Table 2 below.
(§3) In Equation above, the positive control and negative control mean compounds showing control percentages of 0% and 100% as DMSO, respectively.

[5] = target: T4, YSK4 (Homo sapiens, UniProt Q56UN5); assay: scanMAX kinase assay panel; assay type: binding; conditions: read-out: control percentage (% control)
T4 construct: purchased DiscoverX
Procedure: as §2, §3

[6] = target: T5, SYK (Homo sapiens, UniProt P43405); assay: scanMAX kinase assay panel; assay type: binding; conditions: read-out: control percentage (% control)
T5 construct: purchased DiscoverX
Procedure: as §2, §3

[7] = test system: FLT3(ITD, F691L); assay: scanMAX kinase assay panel; assay type: binding; conditions: 1 μM
Procedure: as §2, §3

[8] = test system: MCF-7 cells; assay: Breast cancer cell line proliferation inhibitory activity (CellTiter-Glo 2.0); assay type: cell-based; conditions: Homo sapiens, MCF7, 120 hours
In short: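 MCF-7 cells exposed to a 12-point, 3-fold dilution series (final 0.00005–10 μM) for 120 h at 37 °C. Viability read by CellTiter-Glo 2.0 luminescence, expressed as percent of vehicle-treated cells. GI50 (nM) derived from the curves.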

[9] = target: T6, CDK4-cyclinD1 (Homo sapiens, UniProt P11802); assay: CDK4 enzyme inhibitory ability (Reaction Biology); assay type: biochemical; parameters: purchased Reaction Biology (USA), contract assay; conditions: measured in Reaction Biology (USA)
Procedure: as §1

[10] = target: T6, CDK4-cyclinD1; assay: scanMAX kinase assay panel; assay type: binding; parameters: purchased DiscoverX (scanMAX panel, contract assay); conditions: read-out: control percentage (% control)
Procedure: as §2, §3

T6 sequence (P11802 whole entry): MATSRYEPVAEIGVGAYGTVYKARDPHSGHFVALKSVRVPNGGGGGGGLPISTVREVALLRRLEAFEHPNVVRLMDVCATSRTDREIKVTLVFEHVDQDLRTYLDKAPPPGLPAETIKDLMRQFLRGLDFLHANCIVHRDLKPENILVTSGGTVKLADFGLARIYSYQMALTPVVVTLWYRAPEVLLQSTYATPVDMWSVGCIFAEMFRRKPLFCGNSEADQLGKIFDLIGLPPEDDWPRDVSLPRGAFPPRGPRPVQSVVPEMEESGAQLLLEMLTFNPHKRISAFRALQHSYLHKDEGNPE
T6 sequence (P24385 whole entry partner): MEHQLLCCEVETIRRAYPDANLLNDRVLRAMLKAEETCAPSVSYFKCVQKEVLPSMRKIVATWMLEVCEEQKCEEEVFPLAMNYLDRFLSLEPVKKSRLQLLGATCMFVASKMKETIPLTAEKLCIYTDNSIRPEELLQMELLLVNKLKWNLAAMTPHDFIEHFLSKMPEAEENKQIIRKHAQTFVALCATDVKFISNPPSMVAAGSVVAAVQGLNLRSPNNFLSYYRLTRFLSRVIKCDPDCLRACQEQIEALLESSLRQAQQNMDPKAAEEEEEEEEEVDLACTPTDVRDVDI
T1 sequence (Q00534 whole entry): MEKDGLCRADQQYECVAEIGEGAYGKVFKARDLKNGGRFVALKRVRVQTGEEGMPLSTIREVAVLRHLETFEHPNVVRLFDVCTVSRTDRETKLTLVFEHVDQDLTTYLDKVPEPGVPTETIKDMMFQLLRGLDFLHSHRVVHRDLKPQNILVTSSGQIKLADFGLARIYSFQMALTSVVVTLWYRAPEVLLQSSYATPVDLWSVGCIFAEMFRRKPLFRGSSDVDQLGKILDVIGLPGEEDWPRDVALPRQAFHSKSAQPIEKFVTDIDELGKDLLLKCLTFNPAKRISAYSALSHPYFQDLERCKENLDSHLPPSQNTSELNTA
T1 sequence (P24385 whole entry partner): as the sequence (P24385 whole entry partner) above
T3 sequence (P50613 whole entry): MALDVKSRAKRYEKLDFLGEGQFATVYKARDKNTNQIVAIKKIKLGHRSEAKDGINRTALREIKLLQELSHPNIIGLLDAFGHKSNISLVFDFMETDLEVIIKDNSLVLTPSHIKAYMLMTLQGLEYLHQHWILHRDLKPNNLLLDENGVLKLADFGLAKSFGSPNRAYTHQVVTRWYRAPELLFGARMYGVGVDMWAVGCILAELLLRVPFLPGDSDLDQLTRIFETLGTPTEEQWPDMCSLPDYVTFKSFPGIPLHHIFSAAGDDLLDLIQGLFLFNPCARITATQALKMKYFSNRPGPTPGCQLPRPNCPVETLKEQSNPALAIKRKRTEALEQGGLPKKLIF
T4 sequence (Q56UN5 whole entry): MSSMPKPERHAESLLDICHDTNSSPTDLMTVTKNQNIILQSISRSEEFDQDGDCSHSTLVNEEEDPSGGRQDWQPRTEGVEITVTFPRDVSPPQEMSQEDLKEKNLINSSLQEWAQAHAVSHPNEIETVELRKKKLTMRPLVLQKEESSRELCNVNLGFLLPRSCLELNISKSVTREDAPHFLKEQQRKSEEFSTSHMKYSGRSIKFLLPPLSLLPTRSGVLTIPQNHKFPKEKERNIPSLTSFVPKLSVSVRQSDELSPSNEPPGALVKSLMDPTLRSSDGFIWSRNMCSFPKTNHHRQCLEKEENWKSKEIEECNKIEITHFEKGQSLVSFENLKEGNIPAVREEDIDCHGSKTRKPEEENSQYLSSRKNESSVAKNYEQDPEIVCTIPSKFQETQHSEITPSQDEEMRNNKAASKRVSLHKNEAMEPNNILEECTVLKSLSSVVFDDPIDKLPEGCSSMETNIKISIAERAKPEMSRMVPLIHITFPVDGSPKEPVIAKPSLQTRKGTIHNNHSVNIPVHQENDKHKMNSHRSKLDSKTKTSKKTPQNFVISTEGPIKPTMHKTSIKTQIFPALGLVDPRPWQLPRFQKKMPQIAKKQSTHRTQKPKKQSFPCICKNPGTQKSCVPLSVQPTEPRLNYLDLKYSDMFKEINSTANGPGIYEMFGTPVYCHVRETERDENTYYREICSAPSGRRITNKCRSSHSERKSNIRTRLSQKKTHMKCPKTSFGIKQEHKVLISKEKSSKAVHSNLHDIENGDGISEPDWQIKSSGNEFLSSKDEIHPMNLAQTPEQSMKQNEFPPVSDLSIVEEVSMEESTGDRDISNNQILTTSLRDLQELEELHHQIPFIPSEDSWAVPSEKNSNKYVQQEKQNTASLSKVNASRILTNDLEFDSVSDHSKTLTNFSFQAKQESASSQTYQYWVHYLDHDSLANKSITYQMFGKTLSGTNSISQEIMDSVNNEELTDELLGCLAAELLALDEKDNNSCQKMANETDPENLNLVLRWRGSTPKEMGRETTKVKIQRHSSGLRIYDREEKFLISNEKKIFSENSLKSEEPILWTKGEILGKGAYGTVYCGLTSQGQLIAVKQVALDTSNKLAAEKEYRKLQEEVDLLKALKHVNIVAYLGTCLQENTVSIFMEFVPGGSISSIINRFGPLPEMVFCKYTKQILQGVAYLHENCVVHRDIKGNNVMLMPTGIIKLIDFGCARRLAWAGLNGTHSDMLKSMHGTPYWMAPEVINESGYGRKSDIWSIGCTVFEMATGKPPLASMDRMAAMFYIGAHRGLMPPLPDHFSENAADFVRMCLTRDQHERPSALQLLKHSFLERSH

CN1CCN(c2ccc(Nc3nc(N4OCC[C@H]4c4ccccc4)c4cc[nH]c4n3)cc2)CC1 [Example 74, (S)-N-(4-(4-methylpiperazin-1-yl)phenyl)-4-(3-phenylisoxazolidin-2-yl)-7H-pyrrolo[2,3-d]pyrimidin-2-amine]
IC50 [1]: ≥ 250 nM
IC50 [2]: ≥ 250 nM
GI50 [3]: ≥ 250 nM
remaining binding at 1 µM [4]: 21%
remaining binding at 1 µM [5]: 8.6%
remaining binding at 1 µM [6]: 32%
control percentage (% control) [7]: 0%
GI50 [8]: > 500 nM
IC50 [9]: ≥ 250 nM
remaining binding at 1 µM [10]: 0.55%
